Measured values published in ChEMBL document CHEMBL5331135, “Design, Synthesis, and Evaluation of Glucose Transporter Inhibitor-SN38 Conjugates for Targeting Colorectal Cancer” (J Med Chem, 2023).

Legend:
HCT-116 = assay: Cytotoxicity against human HCT-116 cells incubated for 48 hrs by SRB assay; assay type: functional, cell-based; settings: HCT-116, 48 h
HT-29 = assay: Cytotoxicity against human HT-29 cells incubated for 48 hrs by SRB assay; assay type: functional, cell-based; settings: HT-29, 48 h
COLO 205 = assay: Cytotoxicity against human COLO 205 cells incubated for 48 hrs by SRB assay; assay type: functional, cell-based; settings: COLO 205, 48 h
[1] = Toxicity in AOM/DSS-induced orthotopic CRC BALB/c mouse model assessed as body weight loss at 20 mg/kg, ip administered every other day for 2 weeks; assay type: organism-based; settings: in vivo, 336 h
[2] = Toxicity in AOM/DSS-induced orthotopic CRC BALB/c mouse model assessed as body weight loss at 40 mg/kg, iv administered once every 2 days for 2 weeks; assay type: organism-based; settings: in vivo, 336 h
[3] = Biodistribution in gastrointestinal tract of BALB/c mouse at 20 mg/kg, ip measured after 4 hrs by UHPLC-MS/MS analysis; assay type: ADME, organism-based; settings: in vivo
[4] = Biodistribution in colorectal tumor site of BALB/c mouse at 20 mg/kg, ip measured after 4 hrs by UHPLC-MS/MS analysis; assay type: ADME, organism-based, Neoplasm; settings: in vivo
[5] = Biodistribution in heart of BALB/c mouse at 20 mg/kg, ip measured after 4 hrs by UHPLC-MS/MS analysis; assay type: ADME, organism-based; settings: in vivo
[6] = Biodistribution in liver of BALB/c mouse at 20 mg/kg, ip measured after 4 hrs by UHPLC-MS/MS analysis; assay type: ADME, organism-based; settings: in vivo
[7] = Biodistribution in spleen of BALB/c mouse at 20 mg/kg, ip measured after 4 hrs by UHPLC-MS/MS analysis; assay type: ADME, organism-based; settings: in vivo
[8] = Biodistribution in brain of BALB/c mouse at 20 mg/kg, ip measured after 4 hrs by UHPLC-MS/MS analysis; assay type: ADME, organism-based; settings: in vivo
[9] = Prodrug conversion in heart of BALB/c mouse assessed as SN38 release at 20 mg/kg, ip measured after 4 hrs by UHPLC-MS/MS analysis; assay type: ADME, organism-based; settings: in vivo
[10] = Prodrug conversion in liver of BALB/c mouse assessed as SN38 release at 20 mg/kg, ip measured after 4 hrs by UHPLC-MS/MS analysis; assay type: ADME, organism-based; settings: in vivo
[11] = Prodrug conversion in spleen of BALB/c mouse assessed as SN38 release at 20 mg/kg, ip measured after 4 hrs by UHPLC-MS/MS analysis; assay type: ADME, organism-based; settings: in vivo
[12] = Prodrug conversion in lung of BALB/c mouse assessed as SN38 release at 20 mg/kg, ip measured after 4 hrs by UHPLC-MS/MS analysis; assay type: ADME, organism-based; settings: in vivo
[13] = Prodrug conversion in kidney of BALB/c mouse assessed as SN38 release at 20 mg/kg, ip measured after 4 hrs by UHPLC-MS/MS analysis; assay type: ADME, organism-based; settings: in vivo
[14] = Prodrug conversion in stomach of BALB/c mouse assessed as SN38 release at 20 mg/kg, ip measured after 4 hrs by UHPLC-MS/MS analysis; assay type: ADME, organism-based; settings: in vivo
[15] = Prodrug conversion in intestine of BALB/c mouse assessed as SN38 release at 20 mg/kg, ip measured after 4 hrs by UHPLC-MS/MS analysis; assay type: ADME, organism-based; settings: in vivo
[16] = Prodrug conversion in tumor of BALB/c mouse assessed as SN38 release at 20 mg/kg, ip measured after 4 hrs by UHPLC-MS/MS analysis; assay type: ADME, organism-based, Neoplasm; settings: in vivo
[17] = Prodrug conversion in brain of BALB/c mouse assessed as SN38 release at 20 mg/kg, ip measured after 4 hrs by UHPLC-MS/MS analysis; assay type: ADME, organism-based; settings: in vivo
[18] = Drug concentration in heart of BALB/c mouse at 40 mg/kg, iv measured after 4 hrs by UHPLC-MS/MS analysis; assay type: ADME, organism-based; settings: in vivo
[19] = Drug concentration in liver of BALB/c mouse at 40 mg/kg, iv measured after 4 hrs by UHPLC-MS/MS analysis; assay type: ADME, organism-based; settings: in vivo
[20] = Drug concentration in spleen of BALB/c mouse at 40 mg/kg, iv measured after 4 hrs by UHPLC-MS/MS analysis; assay type: ADME, organism-based; settings: in vivo
[21] = Drug concentration in kidney of BALB/c mouse at 40 mg/kg, iv measured after 4 hrs by UHPLC-MS/MS analysis; assay type: ADME, organism-based; settings: in vivo
[22] = Drug concentration in stomach of BALB/c mouse at 40 mg/kg, iv measured after 4 hrs by UHPLC-MS/MS analysis; assay type: ADME, organism-based; settings: in vivo
[23] = Drug concentration in intestine of BALB/c mouse at 40 mg/kg, iv measured after 4 hrs by UHPLC-MS/MS analysis; assay type: ADME, organism-based; settings: in vivo
[24] = Drug concentration in tumor of BALB/c mouse at 40 mg/kg, iv measured after 4 hrs by UHPLC-MS/MS analysis; assay type: ADME, organism-based, Neoplasm; settings: in vivo
[25] = Drug concentration in brain of BALB/c mouse at 40 mg/kg, iv measured after 4 hrs by UHPLC-MS/MS analysis; assay type: ADME, organism-based; settings: in vivo
[26] = Prodrug conversion in tumor of BALB/c mouse assessed as SN38 release at 40 mg/kg, iv measured after 4 hrs by UHPLC-MS/MS analysis; assay type: ADME, organism-based, Neoplasm; settings: in vivo
[27] = Prodrug conversion in liver of BALB/c mouse assessed as SN38 release at 40 mg/kg, iv measured after 4 hrs by UHPLC-MS/MS analysis; assay type: ADME, organism-based; settings: in vivo

- Drug uptake [3]: Active
- Drug uptake [4]: Active
- Drug uptake [5]: Active
- Drug uptake [6]: Active
- Drug uptake [7]: Active
- Drug uptake [8]: Active
- Drug metabolism [9]: Metabolite_Detected
- Drug metabolism [10]: Metabolite_Detected
- Drug metabolism [11]: Metabolite_Detected
- Drug metabolism [12]: Metabolite_Detected
- Drug metabolism [13]: Metabolite_Detected
- Drug metabolism [14]: Metabolite_Detected
- Drug metabolism [15]: Metabolite_Detected
- Drug metabolism [16]: Metabolite_Detected
- Drug metabolism [17]: Metabolite_Detected
- Ct [18]: Active
- Ct [19]: Active
- Ct [20]: Active
- Ct [21]: Active
- Ct [22]: Active
- Ct [23]: Active
- Ct [24]: Active
- Ct [25]: Active
- Drug metabolism [26]: Metabolite_Detected
- Drug metabolism [27]: Metabolite_Detected
Compound: CCc1c2c(nc3ccc(OC(=O)N4CCC(N5CCCCC5)CC4)cc13)-c1cc3c(c(=O)n1C2)COC(=O)[C@]3(O)CC [IRINOTECAN]
- IC50 (HCT-116): 3.69 µM
- IC50 (HT-29): 8.51 µM
- IC50 (COLO 205): 9.9 µM
- Activity [1]: Non-Toxic
- Activity [2]: Non-Toxic
